Four molecules from patent EP0118205A1, “(5-(2-Aminomethyl-imidazol-1-yl)-1,3-dialkyl-1H-pyrazol-4-yl)(aryl)methanones and processes for their production” (WARNER-LAMBERT COMPANY, priority 1983, dated 1984) can be followed below.

This assay deals with amnesia produced by an electroconvulsive shock. In words: Reversal of amnesia produced by electroconvulsive shock (shelf-box foot shock memory test). In kind it is in vivo, male mice (Carworth, CF-1 strain). The following applies: mice, oral. The procedure: The effectiveness of the aforementioned compounds is determined by the test given below which is designed to show the compound's ability to reverse amnesia produced by an electroconvulsive shock.
One hundred male mice (Carworth, CF-1 strain, 19-21 g at time of shipment) are divided into five groups of 20 mice each. Each mouse is placed, one at a time, on a small shelf attached to the outside wall of a test box. In this position the mouse is suspended in space. Therefore, the mouse is motivated to step from the shelf through a conveniently placed small hole into the interior of the box. As soon as the mouse has all four feet within the semidarkened interior of the box, the grid floor of the box is electrified (1.5 milliamps, 3 second duration) to produce a strong pain-fear reaction from the animal. About five seconds thereafter, the mouse is removed from the test box and placed in a group holding cage.
Two hours after the above training, the mice are given a single electroconvulsive shock produced by 20 milliamps delivered for 1.0 seconds through the ears. Immediately thereafter, the mice are returned to the holding cage.
Two hours after the convulsive treatment, the mice are administered orally through a […] with the chemical being assessed. Usually three doses of the chemical will be tested at a time.
One hour after the drug treatment, the mice are tested for memory of the painful foot shock received within the shelf-box apparatus. This testing is accomplished by once again placing each mouse on the small shelf attached to the test box. Any mouse that stays on the shelf for 60 seconds without entering the box is counted as remembering the painful foot shock received within the box five hours earlier. Any mouse entering the box within the 60-second period is counted as having amnesia for the painful event.
The five groups of mice are treated as follows:
The percentage of amnesia reversal is determined as follows for each drug group: [formula]
The following table reports the percent of amnesia reversal of orally administered [(5-(2-aminomethyl)-5-methyl-lH- imidazol-1-yl)-1,3-dimethyl-lH-pyrazol-4-yi](2-chlorophenyl)methanone dihydrochloride.

Molecules are shown by their SMILES. Structures can show the parent of a compound that is named as a salt.

As for `Cc1nn(C)c(-n2c(CN3CCN(C)CC3)nc(C)c2C)c1C(=O)c1ccccc1Cl` [Example 4, (2-Chlorophenyl)[1,3-dimethyl-5-[4,5-dimethyl-2-[(4-mthyl-piperazin-1-yl)methyl]-1H-imidazol-1-yl]-1H-pyrazol-4-yl]methanone], the “Percent Amnesia Reversal” value runs as follows: (dose 1 mg/kg) 36%; (dose 10 mg/kg) 91%; (dose 100 mg/kg) 54%. The “Percent Amnesia Reversal (Rating)” value was “C (25 to 39 percent (borderline = C))” (dose 1 mg/kg), “A (40 percent or more (active = A))” (dose 10 mg/kg) and “A (40 percent or more (active = A))” (dose 100 mg/kg).
Regarding `Cc1nn(C)c(-n2ccnc2CN2CCCC2)c1C(=O)c1ccccc1Cl` [Example 3, (2-chlorophenyl)-[1,3-dimethyl-5-[2-(1-pyrrolidinylmethyl)-1H-imidazol--yl]-1H-pyrazol-4-yl]methanone dihydrochloride], the “Percent Amnesia Reversal” value is, setting by setting: (dose 1 mg/kg) 79%; (dose 10 mg/kg) 27%; (dose 100 mg/kg) 25%. The “Percent Amnesia Reversal (Rating)” value is recorded as “A (40 percent or more (active = A))” (dose 1 mg/kg), “C (25 to 39 percent (borderline = C))” (dose 10 mg/kg) and “C (25 to 39 percent (borderline = C))” (dose 100 mg/kg).
For the molecule `Cc1nn(C)c(-n2c(C)cnc2CN)c1C(=O)c1ccccc1Cl` [Example 1, [5-((2-aminomethyl)-5-methyl-lH-imidazol-1-yl)-1,3-dimethyl-1H-pyrazol-4-yl] (2-chlorophenyl) methanone dihydrochloride], the “% Amnesia Reversal” value reads like this: (dose 0.63 mg/kg) 20%; (dose 1.25 mg/kg) 40%; (dose 2.50 mg/kg) 40%; (dose 5.00 mg/kg) 62%; (dose 20.00 mg/kg) 87%; (dose 80.00 mg/kg) 44%. The Rating entry by setting is: (dose 0.63 mg/kg) “N (0 to 29 percent (inactive = N))”; (dose 1.25 mg/kg) “A (40 percent or more (active = A))”; (dose 2.50 mg/kg) “A (40 percent or more (active = A))”; (dose 5.00 mg/kg) “A (40 percent or more (active = A))”; (dose 20.00 mg/kg) “A (40 percent or more (active = A))”; (dose 80.00 mg/kg) “A (40 percent or more (active = A))”.
Regarding `Cc1nn(C)c(-n2c(C)cnc2CN(C)C)c1C(=O)c1ccccc1Cl` [Example 2], the “Percent Amnesia Reversal” value by setting is: (dose 1 mg/kg) 64%; (dose 10 mg/kg) 64%; (dose 100 mg/kg) 85%. In addition, the “Percent Amnesia Reversal (Rating)” value by setting is: (dose 1 mg/kg) “A (40 percent or more (active = A))”; (dose 10 mg/kg) “A (40 percent or more (active = A))”; (dose 100 mg/kg) “A (40 percent or more (active = A))”.
